Some test systems named below: NCI-H460; HCT-15; SF-268; HCT-116; OVCAR-8; ACHN; IGROV-1; U-251; CCRF-CEM; A549; HL-60; 786-0; SK-OV-3; SK-MEL-28; SN12C; OVCAR-5.
Test in all cases: growth of human tumour cells (NCI), 48 h

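All cell lines were grown in 96-well plates and treated with compound for 48 hours. Abbreviation: GI50, concentration required for 50% inhibition of growth.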 Activity calls are given as the source filed them. Cut-off read from the data, not from the text of the source: active = GI50 up to about 1.1 µM and inactive = higher. Bounds are passed on as bounds.

`CC1OC(CC(=O)O)Cc2c(O)c3c(c(O)c21)C(=O)C=C(C1=CC(=O)c2c(O)c4c(c(O)c2C1=O)CC(CC(=O)O)OC4C)C3=O` (centres undefined): the GI50 is 60.8 µM (inactive) in the experiment with NCI-H460; 11.6 µM in the experiment with HCT-15; 32 µM (inactive) in the experiment on SF-268; 10.9 µM (inactive) in the experiment on HCT-116; 23.4 µM (inactive) in the experiment on OVCAR-8; 26.1 µM (inactive) with ACHN. Besides, the GI50 with IGROV-1 is 30.7 µM (inactive); in the experiment with U-251 it was 26.1 µM (inactive); in the experiment with CCRF-CEM it was 2.75 µM (inactive); in the experiment with A549 it was 45.1 µM (inactive); with HL-60, 3.03 µM (inactive); with 786-0, 21.4 µM (inactive). Further, the GI50 in the experiment on SK-OV-3 was > 100 µM (inactive); in the experiment with SK-MEL-28, 14.7 µM (inactive); with SN12C it was 16.6 µM (inactive); in the experiment on OVCAR-5, 43.8 µM (inactive).
In the case of `O=C1C=C(Nc2ccc(Cl)cc2C(=O)c2ccccc2)c2ccccc2C1=O`, the GI50 with NCI-H460 is > 100 µM (inactive); with HCT-15 it was above 100 µM; in the experiment on SF-268 it was > 100 µM (inactive); in the experiment with HCT-116 it was > 100 µM (inactive); in the experiment on OVCAR-8, > 100 µM (inactive); with ACHN it was > 100 µM (inactive). Besides, the GI50 in the experiment on IGROV-1, in the experiment with U-251, in the experiment with CCRF-CEM, with A549, with HL-60 and in the experiment with 786-0 was > 100 µM (inactive) each time. Further, the GI50 in the experiment with SK-OV-3, with SK-MEL-28, in the experiment with SN12C and with OVCAR-5 was > 100 µM (inactive) each time.
Turning to `O=c1[nH]c(=O)n(C2CC(O)C(CO)O2)cc1C#Cc1ccc(C(F)(F)F)cc1` (centres undefined), the GI50 was > 100 µM (inactive) in the experiment with NCI-H460; above 100 µM with HCT-15; > 100 µM (inactive) with SF-268; > 100 µM (inactive) in the experiment on HCT-116; > 100 µM (inactive) with OVCAR-8; > 100 µM (inactive) in the experiment on ACHN. The GI50 in the experiment on IGROV-1, in the experiment on U-251, with CCRF-CEM, in the experiment with A549, with HL-60 and in the experiment on 786-0 was > 100 µM (inactive) in each case. Also, the GI50 with SK-OV-3, with SK-MEL-28, in the experiment on SN12C and in the experiment with OVCAR-5 was > 100 µM (inactive) each time.
Consider `O=c1ccc2ccccc2c2ccccc12`, for which the GI50 in the experiment on NCI-H460 was 3.98 µM (inactive); in the experiment on HCT-15 it was 1.87 µM; in the experiment on SF-268, 2.79 µM (inactive); in the experiment with HCT-116 it was 3.7 µM (inactive); in the experiment with OVCAR-8 it was 2.34 µM (inactive); with ACHN, 3.97 µM (inactive). The GI50 in the experiment with IGROV-1 was 6.12 µM (inactive); in the experiment on U-251 it was 2.34 µM (inactive); in the experiment with CCRF-CEM it was 3.2 µM (inactive); in the experiment on A549 it was 13.8 µM (inactive); with HL-60 it was 2.96 µM (inactive); in the experiment with 786-0, 2.77 µM (inactive). Also, the GI50 was 3.6 µM (inactive) with SK-OV-3, 5.46 µM (inactive) with SK-MEL-28, 2.46 µM (inactive) with SN12C and 2.82 µM (inactive) in the experiment on OVCAR-5.
With `Cc1cccc(NC(=O)C(=O)Cc2nc3ccccc3nc2O)c1C`, the GI50 in the experiment on NCI-H460 is > 100 µM (inactive); in the experiment on HCT-15 it was above 100 µM; in the experiment with SF-268, > 100 µM (inactive); in the experiment on HCT-116, > 100 µM (inactive); in the experiment with OVCAR-8, > 100 µM (inactive); with ACHN it was > 100 µM (inactive). In addition, the GI50 with IGROV-1, in the experiment with U-251, with CCRF-CEM, in the experiment with A549, in the experiment with HL-60 and with 786-0 was > 100 µM (inactive) in each case. Moreover, the GI50 in the experiment with SK-OV-3, in the experiment on SK-MEL-28, in the experiment on SN12C and in the experiment on OVCAR-5 was > 100 µM (inactive) throughout.
For the compound `COc1cc(Br)c(CC2NCCc3cc(OC)c(OC)cc32)cc1OC` (centres undefined), the GI50 was 55.2 µM (inactive) with NCI-H460; > 100 µM (inactive) with SF-268; 24.4 µM (inactive) with HCT-116; 86.1 µM (inactive) in the experiment with OVCAR-8; 79.1 µM (inactive) in the experiment with ACHN; 84.3 µM (inactive) with U-251. For the same compound, the GI50 in the experiment on CCRF-CEM was > 100 µM (inactive); in the experiment with A549, 81.1 µM (inactive); in the experiment on HL-60 it was 28.4 µM (inactive); with 786-0, 93.5 µM (inactive); in the experiment with SK-OV-3, > 100 µM (inactive); in the experiment on SK-MEL-28, 70.5 µM (inactive). In addition, the GI50 in the experiment with SN12C was 94.4 µM (inactive); with OVCAR-5, 40.9 µM (inactive).
Take `COC[C@@H]1[C@H]2OC(C)(C)O[C@H]2C(=O)N1C(=O)c1ccc(OC)cc1`: the GI50 with NCI-H460 was > 100 µM (inactive); in the experiment on HCT-15, above 100 µM; in the experiment with SF-268, > 100 µM (inactive); with HCT-116 it was > 100 µM (inactive); with OVCAR-8 it was > 100 µM (inactive); in the experiment on ACHN it was > 100 µM (inactive). The GI50 with IGROV-1, with U-251, with CCRF-CEM, in the experiment on A549, in the experiment with HL-60 and with 786-0 was > 100 µM (inactive) throughout. The GI50 in the experiment on SK-OV-3, with SK-MEL-28, with SN12C and in the experiment with OVCAR-5 was > 100 µM (inactive) throughout.
With `O=c1c2ccccc2nc(-c2cccc(Cl)c2)n1NC1OC(CO)C(O)C(O)C1O` (centres undefined), the GI50 in the experiment with NCI-H460 is > 100 µM (inactive); with HCT-15 it was above 100 µM; in the experiment on SF-268, > 100 µM (inactive); with HCT-116, > 100 µM (inactive); in the experiment with OVCAR-8 it was > 100 µM (inactive); in the experiment with ACHN it was > 100 µM (inactive). The GI50 in the experiment with IGROV-1 was > 100 µM (inactive); in the experiment on U-251, > 100 µM (inactive); with CCRF-CEM, 73.3 µM (inactive); with A549, > 100 µM (inactive); in the experiment with HL-60, > 100 µM (inactive); in the experiment on 786-0, > 100 µM (inactive). The GI50 with SK-OV-3, in the experiment with SK-MEL-28, with SN12C and with OVCAR-5 was > 100 µM (inactive) in each case.
In the case of `Cc1ccc2c(c1)CN1c3ccc(C)cc3CN2C1c1ccccc1O`, the GI50 with NCI-H460 was 33.9 µM (inactive); in the experiment with HCT-15, 23.6 µM; with SF-268, 81.7 µM (inactive); with HCT-116, 18.7 µM (inactive); with OVCAR-8, > 100 µM (inactive); in the experiment with ACHN, 40.3 µM (inactive). In addition, the GI50 was 79.4 µM (inactive) with IGROV-1; 38.5 µM (inactive) in the experiment on U-251; 47.9 µM (inactive) in the experiment on CCRF-CEM; > 100 µM (inactive) in the experiment on A549; 14.8 µM (inactive) in the experiment with HL-60; 42.5 µM (inactive) with 786-0. The GI50 in the experiment with SK-OV-3 was > 100 µM (inactive); with SK-MEL-28 it was 37.5 µM (inactive); in the experiment with SN12C, 29.9 µM (inactive); in the experiment with OVCAR-5, 18.6 µM (inactive).
For `O=C(N/N=C/c1cc(Cl)cc(Cl)c1O)c1ccncc1`, the GI50 was 39 µM (inactive) in the experiment on NCI-H460; 29.7 µM with HCT-15; > 100 µM (inactive) in the experiment on SF-268; > 100 µM (inactive) in the experiment on HCT-116; 70.6 µM (inactive) in the experiment on OVCAR-8; 68.9 µM (inactive) with ACHN. The GI50 with IGROV-1 is 63.5 µM (inactive); with U-251, 92.3 µM (inactive); with CCRF-CEM, 31.2 µM (inactive); with A549, > 100 µM (inactive); in the experiment on HL-60, 26.4 µM (inactive); in the experiment with 786-0 it was 57.9 µM (inactive). Besides, the GI50 was > 100 µM (inactive) with SK-OV-3, > 100 µM (inactive) with SK-MEL-28, > 100 µM (inactive) in the experiment on SN12C and 39.1 µM (inactive) in the experiment with OVCAR-5.
As for `CN(C)CCN(C)CC1COC(C)(C)O1` (centres undefined), the GI50 in the experiment on NCI-H460, in the experiment with SF-268, with HCT-116, in the experiment on OVCAR-8, with ACHN and with IGROV-1 was > 100 µM (inactive) throughout. The GI50 with U-251, with CCRF-CEM, in the experiment with A549, in the experiment on HL-60, in the experiment on 786-0 and in the experiment on SK-OV-3 was > 100 µM (inactive) in each case. For the same compound, the GI50 in the experiment on SK-MEL-28, with SN12C and in the experiment with OVCAR-5 was > 100 µM (inactive) in each case.
In the case of `COC(=O)/C(C)=C/[N+](=O)[O-]`, the GI50 is 22.2 µM (inactive) in the experiment with NCI-H460; 13.5 µM in the experiment on HCT-15; 23.1 µM (inactive) in the experiment on SF-268; 8.04 µM (inactive) with HCT-116; 22.2 µM (inactive) in the experiment on OVCAR-8; 19.5 µM (inactive) with ACHN. Moreover, the GI50 is 20.9 µM (inactive) with IGROV-1; 18.5 µM (inactive) in the experiment with U-251; 2.59 µM (inactive) in the experiment on CCRF-CEM; 21.7 µM (inactive) with A549; 14.1 µM (inactive) in the experiment on HL-60; 17.7 µM (inactive) in the experiment with 786-0. For the same compound, the GI50 in the experiment on SK-OV-3 is 19.2 µM (inactive); in the experiment with SN12C, 20.7 µM (inactive); with OVCAR-5, 19.7 µM (inactive).
Regarding `CN1CCOC(c2ccccc2)O1` (centres undefined), the GI50 was > 100 µM (inactive) in the experiment with NCI-H460; above 100 µM with HCT-15; > 100 µM (inactive) in the experiment with SF-268; > 100 µM (inactive) in the experiment on HCT-116; > 100 µM (inactive) with OVCAR-8; > 100 µM (inactive) with ACHN. Moreover, the GI50 with IGROV-1, in the experiment on U-251, in the experiment on CCRF-CEM, in the experiment with A549, with HL-60 and with 786-0 was > 100 µM (inactive) each time. For the same compound, the GI50 in the experiment on SK-OV-3, with SK-MEL-28, with SN12C and in the experiment with OVCAR-5 was > 100 µM (inactive) each time.
